Source: publication PMC12349723, “Computationally accelerated identification of P-glycoprotein inhibitors” (PLOS One, 2025)
Several values for one entry are separate records, joined by “and”; a condition that tells them apart may be missing. Identical values can stand only once. Like-named read-outs stand apart in the source and are kept apart here.

Tests used:
A2780 cells = assay: MTT viability assay, parental A2780 cells, with or without PTX; assay type: cell-based, human; conditions: for Increase of PTX toxicity against parental A2780 cells: 15 µM compound with or without 500 nM PTX, 48 h, MTT; for Mean % Survival / % Survival (individual sample): A2780 cells; for Mean % Survival / viability at 15 µM: mean of 8 or 12 samples; for % Survival (individual sample): single samples; for viability at 15 µM: Homo sapiens, A2780, A2780 cells, read-out: Mean % Survival
Procedure, shortened: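 Viability was assessed by MTT reduction (absorbance 570 nm, 4 h MTT) after 48 h compound treatment, alone or with chemotherapeutic, of parental A2780 or P-gp-overexpressing A2780-ADR cells seeded at 3,000 per well. Percent survival relative to DMSO-treated or DMSO-plus-chemotherapeutic controls.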

[1] = SWISS-ADME computational analysis of chemical properties; conditions: predicted aqueous solubility compared to that observed in the laboratory
Procedure, shortened: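 In silico prediction by the SWISS-ADME server of chemical properties and of whether each molecule is a P-gp transport substrate, based on its chemical and structural characteristics.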

DU145-TXR cells = assay: MTT viability assay, reversal of MDR (re-sensitization to paclitaxel) in P-gp overexpressing DU145-TXR cells; assay type: cell-based, human; conditions: for % Survival, mean / % Survival: 15 µM compound + 500 nM PTX (Paclitaxel, Taxol); for % Survival, mean / % Survival / viability at 15 µM: DU145-TXR; for Re-sensitization of DU145-TXR cells to PTX (reversal of MDR): 15 µM compound with or without 500 nM PTX, 48 h, MTT, re-sensitization = 30% or greater decrease in cell viability; for viability at 15 µM: Homo sapiens, 15 µM Compound Alone
Procedure, shortened: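 MTT viability testing was done on P-gp overexpressing, multidrug resistant DU145-TXR human prostate cancer cells. They were kept in 10 nM paclitaxel and seeded at 3,000 cells per well in complete RPMI. Cells were exposed to compound, with or without paclitaxel, for 48 hours. MTT was then added for 4 hours, formazan was dissolved in DMSO, and absorbance was read at 570 nm. Survival was expressed relative to control-treated cells.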

P-gp [2] = assay: SWISS-ADME prediction of P-gp transport substrate; conditions: prediction compared to the LC-MS/MS intracellular accumulation data
Source text: Identifying P-gp inhibitors that are not transport substrates remains inherently challenging. To that end, computational tools such as the SWISS-ADME server attempt to use a molecule’s unique chemical and structural characteristics to predict whether it is likely to be a P-gp transport substrate. Our LC-MS/MS assays allowed us to retroactively test the validity of predictions from SWISS-ADME. […] Alternative identifiers for the molecules identified in this study are shown in S7 Table.
S1 Table. Known P-gp Inhibitors and Predicted Chemical Properties. A non-exhaustive list of known P-gp inhibitors and their selected chemical properties ^[64, 65]. Clinical trial outcomes were adapted from ^[10, 11]. Compounds were evaluated using the SWISS-ADME server ^[54]. […] “Predicted P-gp Substrate” - predicted by SWISS-ADME to be a transport substrate of P-gp. “Known P-gp Substrate” – In addition to being P-gp inhibitors, these molecules are: known transport substrates of P-gp, known non-transport substrates of P-gp, unknown whether it is a transport substrate of P-gp ^[66-68]. If the molecule is designated in a specific generation of P-gp inhibitors - First Generation P-gp inhibitors, Second generation P-gp inhibitors, Third generation P-gp inhibitors.

P-gp [3] = target: T1, P-gp (Homo sapiens, UniProt P08183); assay: Top Hit classification from combined in vitro criteria; conditions: reverse MDR, do not increase PTX toxicity in chemo-sensitive cancer cells, non-toxic to noncancerous cells, not P-gp substrates
T1 construct: The MDR, P-gp overexpressing DU145-TXR cells were maintained under positive selection pressure; endogenous in cells; host or cells: DU145-TXR (paclitaxel-resistant sub-line of DU145 human prostate cancer cells)

[4] = mean of 8 samples, read-out: % Survival, mean
[5] = trial 1, sample 1, read-out: % Survival
[6] = trial 1, sample 2, read-out: % Survival
[7] = trial 1, sample 3, read-out: % Survival
[8] = trial 1, sample 4, read-out: % Survival
[9] = trial 2, sample 1, read-out: % Survival
[10] = trial 2, sample 2, read-out: % Survival
[11] = trial 2, sample 3, read-out: % Survival
[12] = trial 2, sample 4, read-out: % Survival

T1 sequence (P08183 whole entry): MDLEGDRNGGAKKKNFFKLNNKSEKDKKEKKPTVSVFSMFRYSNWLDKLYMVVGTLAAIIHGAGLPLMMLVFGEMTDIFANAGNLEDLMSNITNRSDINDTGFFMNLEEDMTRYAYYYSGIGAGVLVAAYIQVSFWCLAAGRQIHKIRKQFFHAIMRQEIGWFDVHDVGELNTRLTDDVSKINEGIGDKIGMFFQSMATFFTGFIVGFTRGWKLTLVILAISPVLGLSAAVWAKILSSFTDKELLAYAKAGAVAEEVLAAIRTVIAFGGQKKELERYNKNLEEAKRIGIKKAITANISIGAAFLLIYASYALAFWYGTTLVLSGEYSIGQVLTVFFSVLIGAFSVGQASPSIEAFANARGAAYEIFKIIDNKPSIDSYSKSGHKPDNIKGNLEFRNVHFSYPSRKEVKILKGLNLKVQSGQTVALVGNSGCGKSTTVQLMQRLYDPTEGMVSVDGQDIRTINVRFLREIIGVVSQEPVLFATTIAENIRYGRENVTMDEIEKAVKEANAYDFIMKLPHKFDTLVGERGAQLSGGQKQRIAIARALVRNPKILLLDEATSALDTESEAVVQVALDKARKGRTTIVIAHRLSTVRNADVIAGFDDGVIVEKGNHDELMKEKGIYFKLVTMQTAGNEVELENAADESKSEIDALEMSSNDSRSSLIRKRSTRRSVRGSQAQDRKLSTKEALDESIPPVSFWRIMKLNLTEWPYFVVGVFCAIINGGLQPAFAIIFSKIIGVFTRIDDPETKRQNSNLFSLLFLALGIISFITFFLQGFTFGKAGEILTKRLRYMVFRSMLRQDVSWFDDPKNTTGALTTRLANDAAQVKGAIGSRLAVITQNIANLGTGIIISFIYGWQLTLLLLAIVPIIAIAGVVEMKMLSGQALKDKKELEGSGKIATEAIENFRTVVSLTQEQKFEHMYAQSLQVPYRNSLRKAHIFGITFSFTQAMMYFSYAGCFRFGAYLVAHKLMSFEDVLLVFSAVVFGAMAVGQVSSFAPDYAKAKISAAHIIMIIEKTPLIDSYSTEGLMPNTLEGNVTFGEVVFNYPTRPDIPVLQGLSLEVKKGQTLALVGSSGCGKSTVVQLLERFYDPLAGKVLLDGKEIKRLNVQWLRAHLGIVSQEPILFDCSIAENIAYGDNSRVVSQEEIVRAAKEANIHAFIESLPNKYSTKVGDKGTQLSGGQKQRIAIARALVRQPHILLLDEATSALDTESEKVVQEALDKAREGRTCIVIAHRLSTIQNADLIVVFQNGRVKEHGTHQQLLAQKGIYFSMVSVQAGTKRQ

Row | Correct Water Solubility Prediction? [1] | SMILES | Increase of PTX toxicity against parental A2780 cells (A2780 cells) | Mean % Survival (A2780 cells; 15 µM compound + 500 nM PTX) | % Survival (individual sample) (A2780 cells; 15 µM compound + 500 nM PTX) | viability at 15 µM (A2780 cells; 15 µM compound alone) | % Survival, mean (DU145-TXR cells; mean of 8 samples) | % Survival (DU145-TXR cells; trial 1, sample 1) | % Survival (DU145-TXR cells; trial 1, sample 2) | % Survival (DU145-TXR cells; trial 1, sample 3) | % Survival (DU145-TXR cells; trial 1, sample 4) | % Survival (DU145-TXR cells; trial 2, sample 1) | % Survival (DU145-TXR cells; trial 2, sample 2) | % Survival (DU145-TXR cells; trial 2, sample 3) | % Survival (DU145-TXR cells; trial 2, sample 4) | Re-sensitization of DU145-TXR cells to PTX (reversal of MDR) (DU145-TXR cells) | viability at 15 µM (DU145-TXR cells; [4]) | viability at 15 µM (DU145-TXR cells; [5]) | viability at 15 µM (DU145-TXR cells; [6]) | viability at 15 µM (DU145-TXR cells; [7]) | viability at 15 µM (DU145-TXR cells; [8]) | further results
1 | No | O=S(=O)(CCSc1nnc(-c2ccccc2)c2ccccc12)c1ccccc1 [Compound 96, O=S(=O)(CCSc1nnc(-c2ccccc2)c2ccccc12)c1ccccc1] | did not greatly increase the toxicity of PTX against the parental A2780 cells | 13.9% | 19% and 20% | 76.5% | 55.3% | 56% | 66% | 66% | 63% | 47% | 50% | 48% | 46% | re-sensitized DU145-TXR cells to PTX | 89.2% | 101% | 100% | 98% | 93% | viability at 15 µM (DU145-TXR cells; [9]): 85%; viability at 15 µM (DU145-TXR cells; [10]): 85%; viability at 15 µM (DU145-TXR cells; [11]): 80%; viability at 15 µM (DU145-TXR cells; [12]): 71%; Correct P-gp Substrate Prediction? (P-gp [2]): Yes; Top Hit (P-gp [3]): Yes
2 | Yes | O=C(NCc1cccc(F)c1)c1nnn2c1Sc1c(C(=O)NCc3cccc(F)c3)nnn1CC2 [Compound 122, Fc1cccc(CNC(=O)c2nnn3CCn4nnc(C(=O)NCc5cccc(F)c5)c4Sc23)c1] | did not greatly increase the toxicity of PTX against the parental A2780 cells | 13.6% | 12% and 14% | 76.5% | 60.4% | 61% | 55% | 61% | 62% | 65% | 63% | 54% | 61% | re-sensitized DU145-TXR cells to PTX | 106% | 102% | 105% | 85% | 102% | viability at 15 µM (DU145-TXR cells; [9]): 123%; viability at 15 µM (DU145-TXR cells; [10]): 107%; viability at 15 µM (DU145-TXR cells; [11]): 106%; viability at 15 µM (DU145-TXR cells; [12]): 114%; Correct P-gp Substrate Prediction? (P-gp [2]): Yes; Top Hit (P-gp [3]): No

Row | SMILES | Correct Water Solubility Prediction? [1] | Increase of PTX toxicity against parental A2780 cells (A2780 cells) | Mean % Survival (A2780 cells; 15 µM compound + 500 nM PTX) | % Survival (individual sample) (A2780 cells; 15 µM compound + 500 nM PTX) | viability at 15 µM (A2780 cells; 15 µM compound alone) | % Survival, mean (DU145-TXR cells; mean of 8 samples) | % Survival (DU145-TXR cells; trial 1, sample 1) | % Survival (DU145-TXR cells; trial 1, sample 2) | % Survival (DU145-TXR cells; trial 1, sample 3) | % Survival (DU145-TXR cells; trial 1, sample 4) | % Survival (DU145-TXR cells; trial 2, sample 1) | % Survival (DU145-TXR cells; trial 2, sample 2) | % Survival (DU145-TXR cells; trial 2, sample 3) | % Survival (DU145-TXR cells; trial 2, sample 4) | Re-sensitization of DU145-TXR cells to PTX (reversal of MDR) (DU145-TXR cells) | viability at 15 µM (DU145-TXR cells; [4]) | viability at 15 µM (DU145-TXR cells; [5]) | viability at 15 µM (DU145-TXR cells; [6]) | viability at 15 µM (DU145-TXR cells; [7]) | viability at 15 µM (DU145-TXR cells; [8]) | further results
3 | O=C(c1nc(-c2ccc3cc[nH]c3c2)no1)N1CCN(c2nsc3ccccc23)CC1 [Compound 70, O=C(N1CCN(CC1)c1nsc2ccccc12)c1nc(no1)-c1ccc2cc[nH]c2c1] | Yes | did not greatly increase the toxicity of PTX against the parental A2780 cells | 22.6% | 14% | 89.4% | 47.0% | 51% | 55% | 50% | 54% | 41% | 36% | 46% | 43% | re-sensitized DU145-TXR cells to PTX | 91.3% | 92% | 103% | 101% | 96% | % Survival (individual sample) (A2780 cells; 15 µM compound alone): 88%; viability at 15 µM (DU145-TXR cells; [9]): 90%; viability at 15 µM (DU145-TXR cells; [10]): 83%; viability at 15 µM (DU145-TXR cells; [11]): 85%; viability at 15 µM (DU145-TXR cells; [12]): 80%; Correct P-gp Substrate Prediction? (P-gp [2]): No; Top Hit (P-gp [3]): Yes
